Results on ten compounds are retold here after ChEMBL document CHEMBL3991601, “The target landscape of clinical kinase drugs” (Science, 2017).

In test [1] the target is Mitogen-activated protein kinase 11 (Homo sapiens, UniProt Q15759).
The target of test [2] is T1, Pyridoxal kinase (Homo sapiens, UniProt O00764).
T1 sequence (O00764 whole entry): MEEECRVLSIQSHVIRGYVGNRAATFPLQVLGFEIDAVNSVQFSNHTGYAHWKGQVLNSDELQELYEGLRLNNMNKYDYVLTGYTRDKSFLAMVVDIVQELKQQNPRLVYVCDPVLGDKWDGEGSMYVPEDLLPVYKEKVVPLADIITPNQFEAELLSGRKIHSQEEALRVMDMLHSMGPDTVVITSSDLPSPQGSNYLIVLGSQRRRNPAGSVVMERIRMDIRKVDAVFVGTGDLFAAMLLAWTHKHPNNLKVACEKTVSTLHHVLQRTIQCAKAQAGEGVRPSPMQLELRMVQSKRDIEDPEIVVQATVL

Test [3] deals with T2, Serine/threonine-protein kinase A-Raf (Homo sapiens, UniProt P10398).
T2 sequence (P10398 whole entry): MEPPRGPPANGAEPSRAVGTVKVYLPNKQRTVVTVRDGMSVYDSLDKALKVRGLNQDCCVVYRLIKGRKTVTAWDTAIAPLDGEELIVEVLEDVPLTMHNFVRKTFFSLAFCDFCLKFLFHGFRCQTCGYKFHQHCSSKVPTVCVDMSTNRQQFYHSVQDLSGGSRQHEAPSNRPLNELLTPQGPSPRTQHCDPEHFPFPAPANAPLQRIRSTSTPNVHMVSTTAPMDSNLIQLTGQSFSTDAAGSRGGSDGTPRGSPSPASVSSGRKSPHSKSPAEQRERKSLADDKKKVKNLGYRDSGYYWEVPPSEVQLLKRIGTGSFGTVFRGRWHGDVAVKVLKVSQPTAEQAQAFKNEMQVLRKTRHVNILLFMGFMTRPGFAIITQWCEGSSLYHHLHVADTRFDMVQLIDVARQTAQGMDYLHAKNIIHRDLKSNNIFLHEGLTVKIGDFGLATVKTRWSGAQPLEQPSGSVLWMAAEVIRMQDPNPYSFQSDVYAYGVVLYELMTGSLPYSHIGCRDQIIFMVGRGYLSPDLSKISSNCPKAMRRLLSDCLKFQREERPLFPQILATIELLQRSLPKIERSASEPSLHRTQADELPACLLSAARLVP

For test [4], the target named is T3, Succinate--CoA ligase [ADP-forming] subunit beta, mitochondrial (Homo sapiens, UniProt Q9P2R7).
T3 sequence (Q9P2R7 whole entry): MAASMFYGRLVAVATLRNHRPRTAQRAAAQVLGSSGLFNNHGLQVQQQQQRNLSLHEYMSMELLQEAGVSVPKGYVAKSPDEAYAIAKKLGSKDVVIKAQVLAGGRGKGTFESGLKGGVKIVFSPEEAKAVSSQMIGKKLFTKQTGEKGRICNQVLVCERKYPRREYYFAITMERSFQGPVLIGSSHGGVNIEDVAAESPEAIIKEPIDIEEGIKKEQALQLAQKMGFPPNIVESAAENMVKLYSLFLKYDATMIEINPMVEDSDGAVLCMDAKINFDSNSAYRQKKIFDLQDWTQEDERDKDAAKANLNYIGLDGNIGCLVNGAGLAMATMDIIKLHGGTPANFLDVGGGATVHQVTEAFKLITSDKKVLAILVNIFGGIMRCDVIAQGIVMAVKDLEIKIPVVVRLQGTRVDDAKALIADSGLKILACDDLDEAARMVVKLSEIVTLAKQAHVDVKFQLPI

In test [5] the target is Putative heat shock protein HSP 90-beta 2 (Homo sapiens, UniProt Q58FF8).
For test [6], the target named is Structural maintenance of chromosomes protein 2 (Homo sapiens, UniProt O95347).
Test [7] deals with T4, Very long-chain specific acyl-CoA dehydrogenase, mitochondrial (Homo sapiens, UniProt P49748).
T4 sequence (P49748 whole entry): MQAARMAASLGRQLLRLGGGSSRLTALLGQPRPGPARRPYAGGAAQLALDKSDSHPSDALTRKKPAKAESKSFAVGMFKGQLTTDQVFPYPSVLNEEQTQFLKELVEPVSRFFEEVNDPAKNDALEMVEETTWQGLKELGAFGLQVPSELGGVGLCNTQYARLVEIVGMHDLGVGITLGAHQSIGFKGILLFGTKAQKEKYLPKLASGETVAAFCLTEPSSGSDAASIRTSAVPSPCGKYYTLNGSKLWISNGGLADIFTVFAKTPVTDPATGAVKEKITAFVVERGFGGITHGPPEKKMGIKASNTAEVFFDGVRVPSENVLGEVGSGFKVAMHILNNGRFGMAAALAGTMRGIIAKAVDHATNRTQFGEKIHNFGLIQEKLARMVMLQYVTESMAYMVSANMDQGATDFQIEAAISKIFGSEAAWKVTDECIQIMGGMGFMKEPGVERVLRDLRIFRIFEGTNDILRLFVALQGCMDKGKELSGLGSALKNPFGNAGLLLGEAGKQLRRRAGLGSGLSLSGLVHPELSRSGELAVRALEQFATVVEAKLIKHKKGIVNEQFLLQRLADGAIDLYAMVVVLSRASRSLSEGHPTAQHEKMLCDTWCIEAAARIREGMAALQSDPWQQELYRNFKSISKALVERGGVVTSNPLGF

The target in test [8] is T5, Interleukin-1 receptor-associated kinase 3 (Homo sapiens, UniProt Q9Y616).
T5 sequence (Q9Y616 whole entry): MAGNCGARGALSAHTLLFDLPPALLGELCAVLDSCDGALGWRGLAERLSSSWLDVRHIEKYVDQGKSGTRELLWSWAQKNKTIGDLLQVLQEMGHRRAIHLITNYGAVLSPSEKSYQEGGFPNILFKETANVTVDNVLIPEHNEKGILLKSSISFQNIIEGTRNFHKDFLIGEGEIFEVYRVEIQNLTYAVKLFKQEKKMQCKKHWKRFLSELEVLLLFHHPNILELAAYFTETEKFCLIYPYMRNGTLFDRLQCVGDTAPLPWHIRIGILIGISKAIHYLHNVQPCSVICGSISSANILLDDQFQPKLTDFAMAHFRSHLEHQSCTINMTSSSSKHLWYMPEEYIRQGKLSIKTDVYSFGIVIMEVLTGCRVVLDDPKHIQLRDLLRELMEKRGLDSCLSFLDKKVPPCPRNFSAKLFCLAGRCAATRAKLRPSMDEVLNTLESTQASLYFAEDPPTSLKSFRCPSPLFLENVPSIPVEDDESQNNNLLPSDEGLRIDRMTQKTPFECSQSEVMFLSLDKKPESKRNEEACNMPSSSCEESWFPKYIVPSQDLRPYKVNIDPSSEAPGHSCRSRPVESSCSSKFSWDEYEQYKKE

For test [9], the target named is LIM domain kinase 1 (Homo sapiens, UniProt P53667).

The structures appear in SMILES notation. Calls of active or inactive are those of the source.
Note: in the data inactive means no Kd found up to 30 µM.

Chain of Mitogen-activated protein kinase 11 (Q15759 whole entry): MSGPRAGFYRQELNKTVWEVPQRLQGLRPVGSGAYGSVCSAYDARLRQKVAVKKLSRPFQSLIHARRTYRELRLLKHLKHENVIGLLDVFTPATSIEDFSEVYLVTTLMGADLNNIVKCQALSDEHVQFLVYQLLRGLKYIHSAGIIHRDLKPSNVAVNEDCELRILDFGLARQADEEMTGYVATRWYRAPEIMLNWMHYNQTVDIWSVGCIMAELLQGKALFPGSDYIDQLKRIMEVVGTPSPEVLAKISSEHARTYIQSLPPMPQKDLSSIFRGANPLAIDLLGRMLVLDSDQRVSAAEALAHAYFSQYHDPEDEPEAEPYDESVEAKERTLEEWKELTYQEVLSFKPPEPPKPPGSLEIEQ
Chain of Structural maintenance of chromosomes protein 2 (O95347 whole entry): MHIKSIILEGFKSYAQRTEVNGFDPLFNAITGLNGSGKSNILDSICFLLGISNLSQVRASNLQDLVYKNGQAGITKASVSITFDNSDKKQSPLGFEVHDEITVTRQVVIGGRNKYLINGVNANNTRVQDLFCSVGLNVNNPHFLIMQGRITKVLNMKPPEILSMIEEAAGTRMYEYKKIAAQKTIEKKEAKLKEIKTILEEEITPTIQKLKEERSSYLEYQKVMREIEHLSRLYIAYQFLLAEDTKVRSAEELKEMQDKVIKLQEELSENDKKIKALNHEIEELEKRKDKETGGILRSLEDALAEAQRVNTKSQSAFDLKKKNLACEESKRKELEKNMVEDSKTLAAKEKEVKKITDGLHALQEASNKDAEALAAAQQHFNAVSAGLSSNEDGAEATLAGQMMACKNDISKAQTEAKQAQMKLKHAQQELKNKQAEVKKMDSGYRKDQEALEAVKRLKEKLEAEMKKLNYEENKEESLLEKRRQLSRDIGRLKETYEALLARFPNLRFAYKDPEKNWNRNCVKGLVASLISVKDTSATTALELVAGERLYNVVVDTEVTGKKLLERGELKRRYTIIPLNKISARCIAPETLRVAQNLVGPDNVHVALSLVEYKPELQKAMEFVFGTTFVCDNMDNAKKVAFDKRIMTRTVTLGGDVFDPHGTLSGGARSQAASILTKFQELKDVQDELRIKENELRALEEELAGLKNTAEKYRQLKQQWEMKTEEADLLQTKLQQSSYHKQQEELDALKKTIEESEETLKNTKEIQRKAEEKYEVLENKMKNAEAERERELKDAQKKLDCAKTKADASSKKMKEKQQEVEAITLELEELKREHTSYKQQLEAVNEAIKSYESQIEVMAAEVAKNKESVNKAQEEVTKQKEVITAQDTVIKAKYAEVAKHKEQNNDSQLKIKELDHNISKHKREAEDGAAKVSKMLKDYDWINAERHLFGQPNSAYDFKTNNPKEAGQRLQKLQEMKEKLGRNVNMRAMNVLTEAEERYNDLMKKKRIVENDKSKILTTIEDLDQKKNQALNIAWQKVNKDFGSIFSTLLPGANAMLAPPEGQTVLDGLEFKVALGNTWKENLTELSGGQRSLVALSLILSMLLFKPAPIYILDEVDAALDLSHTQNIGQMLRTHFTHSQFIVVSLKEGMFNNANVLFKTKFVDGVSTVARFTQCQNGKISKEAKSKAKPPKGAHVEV
Chain of Putative heat shock protein HSP 90-beta 2 (Q58FF8 whole entry): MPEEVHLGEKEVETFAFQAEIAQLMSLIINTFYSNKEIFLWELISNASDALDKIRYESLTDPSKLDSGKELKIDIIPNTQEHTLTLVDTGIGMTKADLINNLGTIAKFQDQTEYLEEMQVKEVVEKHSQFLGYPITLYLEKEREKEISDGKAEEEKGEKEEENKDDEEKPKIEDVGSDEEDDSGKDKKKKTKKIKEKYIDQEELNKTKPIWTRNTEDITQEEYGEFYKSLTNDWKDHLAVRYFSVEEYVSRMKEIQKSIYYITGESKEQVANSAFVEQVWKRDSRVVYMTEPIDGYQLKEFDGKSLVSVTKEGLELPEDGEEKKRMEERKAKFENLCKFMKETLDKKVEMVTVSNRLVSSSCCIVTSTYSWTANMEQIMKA
Chain of LIM domain kinase 1 (P53667 whole entry, the tested form may be a part): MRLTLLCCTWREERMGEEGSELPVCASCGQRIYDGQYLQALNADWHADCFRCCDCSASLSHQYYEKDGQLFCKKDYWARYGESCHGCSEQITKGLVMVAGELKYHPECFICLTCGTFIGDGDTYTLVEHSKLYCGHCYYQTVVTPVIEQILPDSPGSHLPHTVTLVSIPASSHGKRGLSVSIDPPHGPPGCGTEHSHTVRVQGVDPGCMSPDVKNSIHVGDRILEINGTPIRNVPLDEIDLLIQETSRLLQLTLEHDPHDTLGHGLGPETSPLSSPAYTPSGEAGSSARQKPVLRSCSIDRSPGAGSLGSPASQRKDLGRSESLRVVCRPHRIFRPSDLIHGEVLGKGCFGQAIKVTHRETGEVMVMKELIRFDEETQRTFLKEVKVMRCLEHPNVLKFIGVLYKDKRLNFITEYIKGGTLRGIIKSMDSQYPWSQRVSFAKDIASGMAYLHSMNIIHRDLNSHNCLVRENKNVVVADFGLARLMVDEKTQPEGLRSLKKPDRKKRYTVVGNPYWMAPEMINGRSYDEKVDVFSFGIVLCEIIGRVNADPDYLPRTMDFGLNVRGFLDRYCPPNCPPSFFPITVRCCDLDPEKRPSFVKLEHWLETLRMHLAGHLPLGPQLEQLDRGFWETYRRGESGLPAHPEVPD

`OCCn1cc(-c2cnc3nnn(Cc4ccc5ncccc5c4)c3n2)cn1` [PF-04217903]: the Kd in test [1], in test [2], in [3], in test [4], in test [5] and in [6] was > 30 µM (inactive) throughout. For the same compound, the Kd in test [7] and in test [8] was > 30 µM (inactive) throughout.

Consider `CCn1c(-c2nonc2N)nc2c(C#CC(C)(C)O)ncc(OC[C@H]3CCCNC3)c21` [GSK-690693], for which the Kd in [2] was > 30 µM (inactive); in test [3], > 30 µM (inactive); in [4] it was > 30 µM (inactive); in test [5] it was > 30 µM (inactive); in [6], 1.11 µM (active); in [7], > 30 µM (inactive).

With `Cc1cc(Nc2cc(N3CCN(C)CC3)nc(/C=C/c3ccccc3)n2)n[nH]1` [ENMD-2076], the Kd in test [1], in test [2], in test [3], in test [4], in test [5] and in test [6] was > 30 µM (inactive) each time. The Kd in [7] and in test [8] was > 30 µM (inactive) throughout.

With `Nc1nc(N)c2nc(-c3cccc(O)c3)c(-c3cccc(O)c3)nc2n1` [TG100-115], the Kd in test [2] was 5.25 µM (active); in [3], > 30 µM (inactive); in test [5], > 30 µM (inactive); in [6] it was > 30 µM (inactive); in [7], 1.69 µM.

Regarding `CN1CCN(c2ccc3nc(-c4c(N)c5c(F)cccc5[nH]c4=O)[nH]c3c2)CC1` [DOVITINIB], the Kd in test [2], in [3], in test [5], in [6] and in test [7] was > 30 µM (inactive) each time.

For the compound `O=C(Nc1cccc(Cl)c1)Nc1ncc(CCNc2ncnc3ccsc23)s1` [SNS-314], the Kd in [1], in test [2], in test [3], in test [4], in test [5] and in [6] was > 30 µM (inactive) each time. Further, the Kd in test [7] and in test [8] was > 30 µM (inactive) throughout.

For the compound `CCc1cnn2c(NCc3ccc[n+]([O-])c3)cc(N3CCCC[C@H]3CCO)nc12` [DINACICLIB], the Kd in test [1], in test [2], in [3], in [4], in test [5] and in [6] was > 30 µM (inactive) in each case. For the same compound, the Kd in test [7] and in [8] was > 30 µM (inactive) each time.

In the case of `N[C@@H]1CCCN(c2c(/C=C3\SC(=O)NC3=O)cccc2-c2ccccc2)C1`, the Kd in [9], in [1], in test [2], in test [3], in test [4] and in [5] was > 30 µM (inactive) in each case. Also, the Kd in test [6], in [7] and in test [8] was > 30 µM (inactive) each time.

As for `Cc1cn(-c2cc(NC(=O)c3ccc(C)c(Nc4nccc(-c5cccnc5)n4)c3)cc(C(F)(F)F)c2)cn1` [NILOTINIB], the Kd in test [2], in test [3], in test [4], in [5], in [6] and in [7] was > 30 µM (inactive) in each case.

With `CN1N=C(N)c2cn([C@@H]3O[C@H](COP(=O)(O)O)[C@@H](O)[C@H]3O)c3ncnc1c23` [TRICIRIBINE PHOSPHATE], the Kd in test [9], in test [1], in test [2], in test [4], in test [5] and in test [6] was > 30 µM (inactive) in each case. For the same compound, the Kd in [7] and in test [8] was > 30 µM (inactive) throughout.
